# What was measured:
# [1] = test system: single neuroepithelial stem cells; test: single cell culture tests: single neuroepithelial stem cell to neural tubes, one ingredient removed from the culture medium or inhibitor added; format: cell-based; conditions: for ability of the cells to form neural tubes: ingredient removed from the proliferation culture medium; for ability of the cells to form neural tubes / cell proliferation ability: single cell culture; for cell proliferation ability: ingredient removed alone from the proliferation culture medium
# Text: Additionally, a neuroepithelial stem cell can self-organize into the neural tube structures. Preferably, the operation may be performed as follows: neuroepithelial stem cells cultured for long term are digested into single cells, limitedly diluted, and cultured on wells of a 96-well plate coated with laminin, one cell per well, in the above proliferation culture medium; the liquid is changed every 2-3 days, and the single neuroepithelial stem cells self-organize into a series of neural tube structures at the 14-15th day. These neural tube structures derived from single cells express Sox2, Nestin, Pax6, ZO-1 and N-cadherin.
# In addition, in the present embodiment, in order to detect which factors in the whole culture system are essential and necessary for the growth and generation of the neural tubes, it is possible to use the characteristic of the single cell forming the neural tube structure and to perform a series of single cell culture tests where one ingredient is removed from the culture medium every time to estimate which ingredients are essential for self-renewal of the neuroepithelial stem cells and formation of the neural tube.
# SU5402 is an inhibitor of the FGF receptor. What the arrow points to is the miniature neural tube structure derived from the single neuroepithelial stem cell in the neuroepithelial stem cell proliferation culture medium containing SU5402.
# [2] = test system: single neuroepithelial stem cell; test: modeling neural tube defect disease by the single neuroepithelial stem cell to neural tubes assay (folic acid); format: cell-based; conditions: FIG. 5 (C)
Compound,ability of the cells to form neural tubes [1],cell proliferation ability [1],other results
"Cc1c[nH]c(-c2cnc(NCCNc3ccc(C#N)cn3)nc2-c2ccc(Cl)cc2Cl)n1.Cl [CHIR99021, reference compound]",no cell could produce the neural tube structure,–,–
"NC(=O)c1ccc(-c2nc(-c3ccc4c(c3)OCO4)c(-c3ccccn3)[nH]2)cc1 [SB431542, reference compound]",does not affect the ability of the cells to form neural tubes,–,–
"Cc1c[nH]c(/C=C2\C(=O)Nc3ccccc32)c1CCC(=O)O [SU5402, reference compound]",–,–,ability to produce neural tubes ([1]; SU5402 used to inhibit FGFR signaling pathway in proliferation culture medium): all cells lose the ability to produce neural tubes
Nc1nc2ncc(CNc3ccc(C(=O)N[C@@H](CCC(=O)O)C(=O)O)cc3)nc2c(=O)[nH]1 [folic acid],–,–,colony apoptosis versus concentration of the folic acid [2]: in negative correlation with colony apoptosis; neural tube formation versus concentration of the folic acid [2]: in positive correlation with the neural tube formation
Leukemia Inhibitory Factor: regulates cell proliferation and differentiation; ingredient of the proliferation culture medium,significant decrease,significant decrease,continuous production of neural tube structures ([1]; secondary clone assays): necessary for cells to continuously produce neural tube structures
bFGF: growth factor; promotes early-stage differentiation and proliferation of neural stem cells,significant decrease,significant decrease,–
